Patent US11229205B2, “Herbicidally active pyridyl-/pyrimidyl-pyrazine derivatives” (Syngenta Participations AG, priority 2017, dated 2022)

What was measured:
Format in all cases: in vivo
[1] = test system: Alopecurus myosuroides (ALOMY); test: Post-emergence herbicidal activity (B2); conditions: Test B2b; post-emergence application; rate 1000 g/ha; evaluated after 13 days; score 0-5
Method: (§1) Seeds of a variety of test species were sown in standard soil in pots: Triticum aestivium (TRZAW), Avena fatua (AVEFA), Alopecurus myosuroides (ALOMY), Echinochloa crus-galli (ECHCG), Lolium perenne (LOLPE), Zea Mays (ZEAMX), Abutilon theophrasti (ABUTH), Amaranthus retroflexus (AMARE) and Setaria faberi (SETFA). […] The test plants were then grown in a glasshouse under controlled conditions (at 24/16° C., day/night; 14 hours light; 65% humidity) and watered twice daily. After 13 days, the test was evaluated (5=total damage to plant; 0=no damage to plant).

Setaria faberi (SETFA) [2] = test: Post-emergence herbicidal activity (B2); conditions: Test B2b; post-emergence application; rate 1000 g/ha; evaluated after 13 days; score 0-5
Method: as §1

[3] = test system: Echinochloa crus-galli (ECHCG); test: Post-emergence herbicidal activity (B2); conditions: Test B2b; post-emergence application; rate 1000 g/ha; evaluated after 13 days; score 0-5
Method: as §1

Lolium perenne (LOLPE) [4] = test: Post-emergence herbicidal activity (B2); conditions: Test B2b; post-emergence application; rate 1000 g/ha; evaluated after 13 days; score 0-5
Method: as §1

[5] = test system: Triticum aestivium (TRZAW); test: Post-emergence herbicidal activity (B2); conditions: Test B2b; post-emergence application; rate 1000 g/ha; evaluated after 13 days; score 0-5
Method: as §1

Avena fatua (AVEFA) [6] = test: Post-emergence herbicidal activity (B2); conditions: Test B2b; post-emergence application; rate 1000 g/ha; evaluated after 13 days; score 0-5
Method: as §1

[7] = test system: Alopecurus myosuroides (ALOMY); test: Pre-emergence herbicidal activity (B1); conditions: Test 1b; pre-emergence application; rate 1000 g/ha; evaluated after 13 days; score 0-5
Method: as §1

Setaria faberi (SETFA) [8] = test: Pre-emergence herbicidal activity (B1); conditions: Test 1b; pre-emergence application; rate 1000 g/ha; evaluated after 13 days; score 0-5
Method: as §1

[9] = test system: Echinochloa crus-galli (ECHCG); test: Pre-emergence herbicidal activity (B1); conditions: Test 1b; pre-emergence application; rate 1000 g/ha; evaluated after 13 days; score 0-5
Method: as §1

Lolium perenne (LOLPE) [10] = test: Pre-emergence herbicidal activity (B1); conditions: Test 1b; pre-emergence application; rate 1000 g/ha; evaluated after 13 days; score 0-5
Method: as §1

[11] = test system: Triticum aestivium (TRZAW); test: Pre-emergence herbicidal activity (B1); conditions: Test 1b; pre-emergence application; rate 1000 g/ha; evaluated after 13 days; score 0-5
Method: as §1

Avena fatua (AVEFA) [12] = test: Pre-emergence herbicidal activity (B1); conditions: Test 1b; pre-emergence application; rate 1000 g/ha; evaluated after 13 days; score 0-5
Method: as §1

SMILES	damage to plant, ALOMY [1]	damage to plant, SETFA (Setaria faberi (SETFA) [2])	damage to plant, ECHCG [3]	damage to plant, LOLPE (Lolium perenne (LOLPE) [4])	damage to plant, TRAZW [5]	damage to plant, AVEFA (Avena fatua (AVEFA) [6])	damage to plant, ALOMY [7]	damage to plant, SETFA (Setaria faberi (SETFA) [8])	damage to plant, ECHCG [9]	damage to plant, LOLPE (Lolium perenne (LOLPE) [10])	damage to plant, TRAZW [11]	damage to plant, AVEFA (Avena fatua (AVEFA) [12])
CCOC(=O)c1nc(-c2cncnc2)cnc1N [Compound G2]	1	3	1	1	0	1	0	2	0	0	0	0
Nc1ncc(-c2cncc(F)c2)nc1C(F)(F)F [Compound G3, 2-amino-3-trifluoromethyl-5-(5-fluoropyrid-3-yl) pyrazine]	0	3	4	2	0	3	1	4	3	0	1	1
Cc1nc(-c2cncc(F)c2)cnc1N [Compound G4]	0	3	2	0	0	1	0	1	1	0	0	1
COc1nc(-c2cncc(F)c2)cnc1N [Compound G5]	1	3	2	0	0	1	0	1	1	0	0	0
Nc1ncc(-c2cncnc2)nc1C(F)(F)F [Compound G6]	0	3	3	1	0	1	0	2	1	0	0	1
N#Cc1nc(-c2cncc(F)c2)cnc1N [Compound G7]	0	2	3	0	0	1	0	1	1	0	0	0
Nc1ncc(-c2cncc(F)c2)nc1Br [Compound G8, 2-amino-3-bromo-5-(5-fluoropyrid-3-yl)pyrazine]	0	1	2	0	0	0	0	0	0	0	0	0
Nc1ncc(-c2cncnc2)nc1OCc1ccccc1 [Compound G10]	0	1	1	0	0	0	0	0	0	0	0	0
Nc1ncc(-c2cncc(F)c2)nc1OCc1ccccc1 [Compound G11]	0	1	1	0	0	1	0	0	0	0	0	0
OCNc1ncc(-c2cncc(F)c2)nc1C(F)(F)F [Compound G12, 2-hydroxymethylamino-3-trifluoromethyl-5-(5-fluoropyrid-3-yl)pyrazine]	0	3	2	0	0	5	0	5	3	0	0	1
Cc1nc(-c2cncc(F)c2)cnc1N(C)C [Compound G13, 2-dimethylamino-3-methyl-5-(5-fluoropyrid-3-yl)pyrazine]	0	3	1	0	0	1	0	1	0	0	0	0
C=C(C)c1nc(-c2cncc(F)c2)cnc1N [Compound G14, 5-(5-fluoro-3-pyridyl)-3-isopropenyl-pyrazin-2-amine]	0	4	1	1	0	1	0	2	1	0	0	0
CC(C)c1nc(-c2cncc(F)c2)cnc1N [Compound G15, 2-amino-3-(prop-2-yl)-5-(5-fluoropyrid-3-yl)pyrazine]	0	4	1	0	0	0	0	0	0	2	0	0
CNc1ncc(-c2cncc(F)c2)nc1C [Compound G17, 2-methylamino-3-methyl-5-(5-fluoropyrid-3-yl)pyrazine]	0	1	1	0	0	0	0	0	0	0	0	0
C=Cc1nc(-c2cncc(F)c2)cnc1N [Compound G18]	0	1	1	0	0	1	0	0	0	0	0	0
CCc1nc(-c2cncc(F)c2)cnc1N [Compound G19]	0	3	2	0	0	1	0	4	1	1	0	0
C[Si](C)(C)C#Cc1nc(-c2cncc(F)c2)cnc1N [Compound G20]	0	0	0	0	1	1	0	0	0	0	0	0
CCCNc1ncc(-c2cncc(F)c2)nc1C(F)(F)F [Compound G23]	0	4	4	1	0	1	1	3	2	1	0	0
